From US11103525B2, “Idoxuridine and its analogs as neuroprotectans for the treatment of parkinsonism” (priority 2017, dated 2021)

Tests used:
Type in all cases: cell-based, mouse
GPR37-tGFP = GPR37-tGFP translocation assay; details: 72 h
Protocol: FIG. 2. Schematic representation of the rationale and the basic steps of GPR37-translocation assay. A. GPR37 is prone to misfolding and aggregation, which, in metabolically-active cells, are followed by degradation and results in low levels of functional receptor in the plasma membrane. The primary targets of the screening assay are compounds that can directly or indirectly facilitate maturation and trafficking of GPR37 to the plasma membrane. B. N2a cells stably expressing GPR37-tGFP are seeded in poly-D-Lysine coated 384 well plates at density 5000 cells/well. 24 h later cells are treated with compounds, including positive and negative controls, and incubated for 72 h. Then cells are fixed with 4% PFA and additionally stained with Hoechst 33342 (nuclei) and HCS CellMask™ red (cell body) to enable segmentation of the plasma membrane. Acquisition of fluorescence images is done using ImageXpress high content screening system (Molecular Devices). Quantification of GPR37-tGFP levels in the plasma membrane is done using CellProfiler software. FIG. 3. Schematic representation of Image analysis pipeline and final outcome data. Segmentation of the plasma membrane is performed in five main steps: 1) identification of nuclei (primary objects) using nuclear stain, 2) determination of cell borders using primary objects as seeds and growing these objects in respect of tGFP and HCS CellMask™ fluorescence intensity (secondary objects), 3) shrinking and expending secondary objects, 4) subtraction of shrunken cells from expended cells which results in membrane segmentation (tertiary objects), 5) tGFP fluorescence intensity is calculated within tertiary objects. Z′ factor is a quality measure of an assay which describes how well separated positive and negative controls are. Assays having Z′ factors above 0.5 are considered good assays. N2a cells stably expressing GPR37-tGFP were seeded in 384 BDFalcon BioCoat Poly-D-Lysine coated plates at a density of 5000 cells/well, and 50 μL incubation volume of maintenance medium. Cells were incubated at 37° C., 5% CO2 using humidity chamber. 24 h later, the cells were treated with 10 μL of compounds of desired concentration, including positive (2 mM dibutyryl-cAMP+0.5 mM 4-phenylbutyrate) and negative controls (0.1% DMSO), and incubated for 72 h. Cells were fixed with 4% PFA by adding 20 μL of 16% PFA directly to cell medium, incubating for 20 min and washing with PBS-Tween20 (0.05%). Directly after fixation cells were stained for nuclei with Hoechst 33342 (0.01 mg/mL) and for cell bodies with HCS CellMask™ Red stain (Thermo Fisher Scientific Inc.) (0.001 mg/mL) by incubating with the dyes for 30 min in PBS-Tween20 (0.05%) followed by washing with PBS. All the additional steps, including cell seeding were performed using Multidrop Combi dispenser (Thermo Scientific) and washing steps were done by means of HydroSpeed™ plate washer (Tecan). The images were captured using ImageXpress Micro XLS Widefield High-Content Analysis System (Molecular Devices, LLC) in 3 fluorescent channels (ImageXpress filters are listed, followed by excitation/emission in nm): DAPI (387/447), FITC (482/536) and TexasRed (562/624). Binning 2 was applied during the acquisition and digital confocal option was used for FITC and TexasRed filters. Typically, 5 images were taken per well at magnification 20× and stored as 16 bit, gray scale tif files along with metadata in Oracle database, for further analysis. Quantification of GPR37-tGFP levels in the plasma membrane was done using CellProfiler™ software. CellProfiler™ is an open-source cell image analysis software available at www.cellprofiler.org. An image analysis pipeline used for membrane segmentation consisted of 5 main steps (FIG. 3): 1) segmentation of nuclei (primary objects); 2) segmentation of cell bodies (secondary objects); 3) shrinking and expending cell bodies; 4) subtraction of shrank cells from expanded cells (tertiary objects—membranes); 5) calculating tGFP fluorescence in the membranes. […]

N2a-GPR37-tGFP cells = test: Cytoprotection against 6-OHDA (MTT assay), N2a-GPR37-tGFP cells; details: 2 μM pretreatment 72 h, then 6-OHDA 24 h; compared with N2a-WT cells
Protocol: FIG. 6. GPR37-associated cytoprotection of Idoxuridine against parkinsonian drug 6-OHDA. N2a-WT and N2a-GPR37-tGFP cells were grown in differentiating medium containing either 2 μM idoxuridine, 0.1% DMSO (negative control) or 1 mM dbcAMP (positive control). 72 h later cells were treated with either 6-OHDA (10, 20, 35 100 μM) or vehicle control and incubated for 24 h. Cell viability was quantified by MTT assay. Data are pooled from three independent experiments with 6 technical replicates for each condition and are expressed as means+/−SD. To assess the […] effect of idoxuridine against 6-OHDA-toxicity data were analyzed using a 2-way ANOVA followed by a Bonferroni correction test. Each cell line was statistically analyzed separately, with pretreatment and 6-OHDA treatment as variables; or GPR37 expression and 6-OHDA-treatment as variables. For simplicity, only idoxuridine related significance is indicated; significances between positive and negative controls are not shown; ****p<0.0001, ***p<0.001, **p<0.01. Test compound (5 μL) of desired concentration (Idoxuridine, final concentration 2 μM); positive control (dibutyryl-cAMP, final concentration 1 mM); and negative control (DMSO, final concentration 0.1%) were plated in a 96-well plate. […] Absorbance was measured at 570 nm (formazan product) and at 650 nm (reference) using a Tecan Spark® 10M microplate reader. […]

wildtype cells = test: Cytoprotection against MG132, wildtype cells
Protocol: FIG. 8: Cytoprotection of Idoxuridine against MG132. MG132-induced proteasomal inhibition reduced cell viability. […] Data represented as mean+SD. Analysis performed via one-way ANOVA with Neuman-Keuls post-test for both Figures. *** indicates p<0.001. 2 mM 4-PBA used as a positive unspecific control. MG132 is a potent 26S proteasome inhibitor which increases protein accumulation, ROS leakage, induces cell cycle arrest and apoptosis.

SMILES: O=c1[nH]c(=O)n([C@H]2C[C@H](O)[C@@H](CO)O2)cc1I [Idoxuridine, 2′-deoxy-5-iodouridine]
- concentration up to which GPR37-tGFP level at the plasma membrane increases in a dose response manner (GPR37-tGFP; dose response): around 5 μM
- EC50 (GPR37-tGFP; dose response, read-out: concentration giving 50% activity of positive control (GPR37-tGFP level at the plasma membrane)): ~1000 nM
- GPR37-tGFP level in the plasma membrane, activity of positive control (GPR37-tGFP; primary screen, 10 μM, positive control (dibutyryl-cAMP + 4-phenylbutyrate) = 100%): about 100%
- cytoprotective effect against 6-OHDA (cell viability, MTT) (N2a-GPR37-tGFP cells): significantly higher effect
- effect on MG132-induced reduction of cell viability (wildtype cells): some neuroprotection
